Some test systems named below: IGROV1 ovarian; NCI/ADR-RES ovarian; TK-10 renal; A549 NSCLC; HCC-2998 colon; CAKI-1 renal; MALME-3M melanoma; MDA-N; MCF7 breast; K-562 leukemia; HT29 colon; SW-620 colon; SF-539 CNS; SF-268 CNS; UACC-257 melanoma; MOLT-4 leukemia; SK-MEL-28 melanoma; RPMI-8226 leukemia.
What all share (experiment): NCI anticancer screen, dose series, 48 h

Structures are written as SMILES.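 Method: 48-hour compound exposure of cells in 96-well plates, five concentrations, linear interpolation of endpoints. TGI is the concentration that stops growth completely.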 Where only a bound is given, the exact number is not on record here.

Take `CSCCCNC(=O)[C@H](CSC)NC(=O)c1csc(CCNC(=O)[C@@H](NSc2ccccc2[N+](=O)[O-])C(C)O)n1` (stereo not given in full): the TGI in the experiment with IGROV1 ovarian, in the experiment on NCI/ADR-RES ovarian, in the experiment with TK-10 renal, in the experiment on A549 NSCLC, in the experiment on HCC-2998 colon and with CAKI-1 renal was more than 100 µM in each case. Besides, the TGI in the experiment with MALME-3M melanoma, in the experiment with MDA-N, in the experiment with MCF7 breast, with K-562 leukemia, in the experiment with HT29 colon and with SW-620 colon was more than 100 µM each time. In addition, the TGI in the experiment on SF-539 CNS, in the experiment on SF-268 CNS, in the experiment on UACC-257 melanoma, in the experiment on MOLT-4 leukemia and in the experiment on SK-MEL-28 melanoma was more than 100 µM in each case.

`COc1ccc2c([nH]c3c(O)c(-c4c(C)cc5c([nH]c6c(CC=C(C)C)c(OC)ccc65)c4O)c(C)cc32)c1CC=C(C)C`: the TGI in the experiment on IGROV1 ovarian, with TK-10 renal, in the experiment with A549 NSCLC, in the experiment on HCC-2998 colon, in the experiment on CAKI-1 renal and in the experiment on MALME-3M melanoma was more than 100 µM throughout. Also, the TGI in the experiment on K-562 leukemia, in the experiment with HT29 colon, with SW-620 colon, in the experiment with SF-539 CNS, in the experiment on SF-268 CNS and with UACC-257 melanoma was more than 100 µM each time. Further, the TGI in the experiment on RPMI-8226 leukemia, in the experiment with MOLT-4 leukemia and in the experiment on SK-MEL-28 melanoma was more than 100 µM each time.

Turning to `O=c1c2ccccc2nc(-c2ccccc2)n1NC(=S)Nc1cccc(Cl)c1`, the TGI in the experiment on IGROV1 ovarian, in the experiment with TK-10 renal, with A549 NSCLC, with CAKI-1 renal, with MALME-3M melanoma and in the experiment on K-562 leukemia was more than 100 µM in each case. In addition, the TGI with HT29 colon, in the experiment with SW-620 colon, with SF-539 CNS, in the experiment on SF-268 CNS, with UACC-257 melanoma and in the experiment with RPMI-8226 leukemia was more than 100 µM each time. Also, the TGI with MOLT-4 leukemia and in the experiment with SK-MEL-28 melanoma was more than 100 µM throughout.

As for `Cc1ccc(S(=O)(=O)Nn2c(O)c(C#N)c(-c3ccc([N+](=O)[O-])cc3)c(C#N)c2=O)cc1`, the TGI with IGROV1 ovarian, in the experiment on NCI/ADR-RES ovarian, in the experiment with TK-10 renal, in the experiment on A549 NSCLC, in the experiment on HCC-2998 colon and with CAKI-1 renal was more than 100 µM throughout. For the same compound, the TGI in the experiment with MALME-3M melanoma, in the experiment with MDA-N, in the experiment with MCF7 breast, with K-562 leukemia, with HT29 colon and with SW-620 colon was more than 100 µM in each case. The TGI in the experiment with SF-539 CNS, in the experiment on SF-268 CNS, in the experiment with UACC-257 melanoma, in the experiment on MOLT-4 leukemia and in the experiment with SK-MEL-28 melanoma was more than 100 µM in each case.

Take `C(=C/c1nc2ccccc2o1)/c1ccc2c(c1)OCO2`: the TGI in the experiment with IGROV1 ovarian was more than 83 µM; with NCI/ADR-RES ovarian it was 39.5 µM; in the experiment on A549 NSCLC it was more than 81.4 µM; with HCC-2998 colon, more than 70.8 µM; in the experiment on CAKI-1 renal, 40 µM; in the experiment with MALME-3M melanoma it was more than 95.9 µM. The TGI in the experiment on MCF7 breast was more than 79.8 µM; in the experiment on K-562 leukemia it was more than 65.3 µM; with HT29 colon, more than 81.8 µM; with SW-620 colon, more than 100 µM; in the experiment with SF-539 CNS, 34.6 µM; in the experiment with SF-268 CNS, more than 100 µM. For the same compound, the TGI in the experiment with UACC-257 melanoma, with RPMI-8226 leukemia, in the experiment with MOLT-4 leukemia and in the experiment on SK-MEL-28 melanoma was more than 100 µM each time.

Turning to `CC(=O)Nc1ccc(-c2nnc(SCC(=O)Nc3ccc(Cl)cc3)o2)cc1`, the TGI in the experiment on IGROV1 ovarian was determined as 29.3 µM; with TK-10 renal it was 32.4 µM; with A549 NSCLC, 32 µM; with HCC-2998 colon, 37.5 µM; in the experiment with CAKI-1 renal, 33.7 µM; with MALME-3M melanoma, 29.4 µM. Further, the TGI in the experiment with K-562 leukemia was more than 100 µM; in the experiment on HT29 colon, 23.2 µM; with SW-620 colon, 29.8 µM; in the experiment with SF-539 CNS it was 30.2 µM; in the experiment with SF-268 CNS it was 20.1 µM; in the experiment with UACC-257 melanoma it was 40.9 µM. The TGI is more than 100 µM in the experiment on RPMI-8226 leukemia, 32.8 µM with MOLT-4 leukemia and 27.2 µM with SK-MEL-28 melanoma.

For `CCOC(C)OC1CC(n2cc(C)c(=O)[nH]c2=O)OC1CO` (stereo not given), the TGI with IGROV1 ovarian, with TK-10 renal, in the experiment with A549 NSCLC, with HCC-2998 colon, in the experiment on MALME-3M melanoma and in the experiment with K-562 leukemia was more than 100 µM throughout. The TGI in the experiment with HT29 colon, with SW-620 colon, with SF-539 CNS, in the experiment on SF-268 CNS, in the experiment with UACC-257 melanoma and in the experiment on RPMI-8226 leukemia was more than 100 µM throughout. Also, the TGI in the experiment on MOLT-4 leukemia and with SK-MEL-28 melanoma was more than 100 µM throughout.

Consider `O=C(CCC1CCCCN1)Nc1ccc2c(c1)C(=O)c1ccc(NC(=O)CCN3CCCCC3)cc1C2=O` (stereo not given), for which the TGI in the experiment on IGROV1 ovarian was 31.2 µM; in the experiment on TK-10 renal, 9.42 µM; in the experiment on A549 NSCLC it was 33.4 µM; with CAKI-1 renal, 5.61 µM; with MALME-3M melanoma, 2.81 µM; in the experiment with K-562 leukemia, 4.97 µM. The TGI in the experiment on HT29 colon was determined as 10.8 µM; in the experiment with SF-539 CNS, 8.46 µM; in the experiment on SF-268 CNS it was 25.4 µM; in the experiment with UACC-257 melanoma, 2.94 µM; in the experiment on SK-MEL-28 melanoma, 3.77 µM.

As for `Cc1csc(-n2c(C)nc3cc(Cl)ccc3c2=O)n1`, the TGI with IGROV1 ovarian, with NCI/ADR-RES ovarian, in the experiment with TK-10 renal, with A549 NSCLC, in the experiment with HCC-2998 colon and in the experiment on CAKI-1 renal was more than 100 µM each time. Moreover, the TGI in the experiment on MDA-N, in the experiment on MCF7 breast, in the experiment on K-562 leukemia, with HT29 colon, in the experiment on SW-620 colon and in the experiment on SF-539 CNS was more than 100 µM in each case. Moreover, the TGI in the experiment with SF-268 CNS, in the experiment with UACC-257 melanoma, with MOLT-4 leukemia and in the experiment on SK-MEL-28 melanoma was more than 100 µM throughout.
